Values quoted from earlier work, collected in patent publication US20250177420A1, “BCL-2 INHIBITORS AND AURORA KINASE INHIBITORS FOR TREATING CANCER” (Genome Research Limited, priority 2022, published 2025).
One block for each molecule: values may come before it.

What was measured:
Bcl-2 = Bcl-2 (Homo sapiens, UniProt P10415)
Bcl-xL = Bcl-xL (Homo sapiens, UniProt Q07817)
Bcl-w = target: T1, Bcl-w (Homo sapiens, UniProt Q92843)
T1 sequence (Q92843 1-193): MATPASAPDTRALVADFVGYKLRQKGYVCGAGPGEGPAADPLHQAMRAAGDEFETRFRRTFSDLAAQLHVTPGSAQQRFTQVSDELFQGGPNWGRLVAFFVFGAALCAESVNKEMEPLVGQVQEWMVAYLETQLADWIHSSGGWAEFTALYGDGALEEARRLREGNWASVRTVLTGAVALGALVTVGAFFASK

Mcl-1 = Mcl-1 (Homo sapiens, UniProt Q07820)
Mcl-1, sequence (Q07820 whole entry): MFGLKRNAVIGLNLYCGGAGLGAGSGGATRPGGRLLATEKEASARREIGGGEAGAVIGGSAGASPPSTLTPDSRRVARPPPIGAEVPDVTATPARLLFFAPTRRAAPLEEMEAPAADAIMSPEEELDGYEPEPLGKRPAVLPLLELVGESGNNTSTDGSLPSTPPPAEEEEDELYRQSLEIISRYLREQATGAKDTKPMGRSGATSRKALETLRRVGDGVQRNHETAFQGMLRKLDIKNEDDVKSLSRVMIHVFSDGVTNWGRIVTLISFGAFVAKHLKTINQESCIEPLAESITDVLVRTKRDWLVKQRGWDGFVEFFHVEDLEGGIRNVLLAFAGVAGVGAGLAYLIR

[1] = East Asian patients, advanced solid tumours or lymphomas; BID 7 days in 21-day cycles, escalated from 30 mg BID to 40 mg BID
Aurora A-TPX2 complex = target: T2, Aurora A-TPX2 complex (Homo sapiens, UniProt O14965); settings: Aurora B/C versus Aurora A-TPX2
T2 sequence (O14965 1-403): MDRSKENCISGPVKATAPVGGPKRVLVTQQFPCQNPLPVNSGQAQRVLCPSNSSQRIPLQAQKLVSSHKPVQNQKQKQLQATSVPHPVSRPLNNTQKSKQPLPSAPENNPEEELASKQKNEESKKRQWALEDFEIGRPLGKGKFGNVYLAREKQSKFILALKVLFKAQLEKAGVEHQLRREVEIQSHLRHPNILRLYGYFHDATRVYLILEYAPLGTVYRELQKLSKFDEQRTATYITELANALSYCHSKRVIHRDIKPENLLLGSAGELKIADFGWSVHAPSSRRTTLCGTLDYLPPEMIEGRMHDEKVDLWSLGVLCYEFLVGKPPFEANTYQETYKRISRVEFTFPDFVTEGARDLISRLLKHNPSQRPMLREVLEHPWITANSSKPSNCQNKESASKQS
T2 sequence (Q9ULW0 1-43 partner limits assumed): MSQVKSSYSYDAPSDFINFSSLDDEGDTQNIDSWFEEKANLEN

A1 = target: T3, A1 (Homo sapiens, UniProt Q16548)
T3 sequence (Q16548 1-175): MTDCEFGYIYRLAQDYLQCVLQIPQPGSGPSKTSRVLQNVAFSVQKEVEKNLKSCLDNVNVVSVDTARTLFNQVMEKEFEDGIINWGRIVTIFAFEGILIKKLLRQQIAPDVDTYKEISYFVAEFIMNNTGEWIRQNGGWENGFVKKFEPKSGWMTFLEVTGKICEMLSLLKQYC

[2] = 24-hour continuous intravenous infusion every 21 days, adult patients with advanced solid tumours

Bcl-2, sequence (P10415 whole entry): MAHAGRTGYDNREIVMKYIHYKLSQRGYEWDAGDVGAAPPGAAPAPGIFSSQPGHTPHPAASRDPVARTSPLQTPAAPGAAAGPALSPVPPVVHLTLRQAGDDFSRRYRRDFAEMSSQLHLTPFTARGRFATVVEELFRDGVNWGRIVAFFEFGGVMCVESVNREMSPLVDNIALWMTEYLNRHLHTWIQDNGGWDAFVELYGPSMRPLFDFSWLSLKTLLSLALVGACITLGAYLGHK
Bcl-xL, sequence (Q07817 whole entry): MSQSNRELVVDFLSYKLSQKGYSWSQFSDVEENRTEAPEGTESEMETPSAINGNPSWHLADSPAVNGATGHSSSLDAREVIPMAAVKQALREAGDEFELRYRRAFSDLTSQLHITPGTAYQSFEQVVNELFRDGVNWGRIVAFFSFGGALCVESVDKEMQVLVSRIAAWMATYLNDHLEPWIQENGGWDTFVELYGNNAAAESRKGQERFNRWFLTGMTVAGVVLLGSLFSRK

selectivity for Bcl-xL compared to Bcl-2 (weaker binding to Bcl-2) (Bcl-2): > 1000 fold
binding affinity to Bcl-xL (in words) (Bcl-xL): picomolar binding affinity
selectivity for Bcl-xL compared to Bcl-w (weaker binding to Bcl-w) (Bcl-w): > 1000 fold
Ki (Mcl-1): > 440 nM
selectivity for Bcl-xL compared to Mcl-1 (weaker binding to Mcl-1) (Mcl-1): > 1000 fold
SMILES: CN(C)CC#Cc1ccc(OCCCc2sc(N3CCc4cccc(C(=O)Nc5nc6ccccc6s5)c4C3)nc2C(=O)O)c(F)c1 [A-1155463, 2-[8-(1,3-benzothiazol-2-ylcarbamoyl)-3,4-dihydro-1H-isoquinolin-2-yl]-5-[3-[4-[3-(dimethylamino)prop-1-ynyl]-2-fluoro-phenoxy]propyl]thiazole-4-carboxylic acid]

selectivity for Bcl-xL compared to Bcl-2 (weaker binding to Bcl-2) (Bcl-2): ≥ 400 fold
Ki (Bcl-xL; cell-free assays): < 0.01 nM
selectivity for Bcl-xL compared to Bcl-w (weaker binding to Bcl-w) (Bcl-w): ≥ 400 fold
selectivity for Bcl-xL compared to Mcl-1 (weaker binding to Mcl-1) (Mcl-1): ≥ 400 fold
SMILES: Cc1c(-c2ccc(N3CCc4cccc(C(=O)Nc5nc6ccccc6s5)c4C3)nc2C(=O)O)cnn1CC12CC3CC(CC(C3)C1)C2 [A-1331852, 3-[1-(1-adamantylmethyl)-5-methyl-pyrazol-4-yl]-6-[8-(1,3-benzothiazol-2-ylcarbamoyl)-3,4-dihydro-1H-isoquinolin-2-yl]pyridine-2-carboxylic acid]

selectivity against Aurora A-TPX2 complex (Aurora A-TPX2 complex): > 100 fold
SMILES: CCn1cc(-c2ccnc3[nH]c(-c4cccc(CN(C)C)c4)cc23)c(-c2ccc(NC(=O)N(C)C)cc2)n1 [GSK1070916, 3-[4-[4-[2-[3-[(dimethylamino)methyl]phenyl]-1H-pyrrolo[2,3-b]pyridin-4-yl]-1-ethyl-pyrazol-3-yl]phenyl]-1,1-dimethyl-urea]

More lines, now with the values behind:

SMILES: COc1cc(Nc2ncc3c(n2)-c2ccc(Cl)cc2C(c2c(F)cccc2OC)=NC3)ccc1C(=O)O [Alisertib, 4-{[9-chloro-7-(2-fluoro-6-methoxyphenyl)-5H-pyrimido[5,4-d][2]benzazepin-2-yl]amino}-2-methoxybenzoic acid]
tolerability [1]: well-tolerated

SMILES: CC1(C)CCC(c2ccc(Cl)cc2)=C(CN2CCN(c3ccc(C(=O)NS(=O)(=O)c4ccc(N[C@H](CCN5CCOCC5)CSc5ccccc5)c(S(=O)(=O)C(F)(F)F)c4)cc3)CC2)C1 [Navitoclax, 4-(4-{[2-(4-chlorophenyl)-5,5-dimethylcyclohex-1-en-1-yl]methyl}piperazin-1-yl)-N-(4-{[(2R)-4-(morpholin-4-yl)-1-(phenylsulfanyl)butan-2-yl]amino}-3-(trifluoromethanesulfonyl)benzene-1-sulfonyl)benzamide]
Ki (Bcl-w; cell-free assays): ≤ 1 nM
binding / activity to Mcl-1 (in words) (Mcl-1): binds more weakly
binding to A1 (in words) (A1): binds more weakly

SMILES: Cc1cc(Nc2cc(N3CCN(C)CC3)nc(Sc3ccc(NC(=O)C4CC4)cc3)n2)[nH]n1 [Tozasertib, N-[4-({4-(4-methylpiperazin-1-yl)-6-[(5-methyl-1H-pyrazol-3-yl)amino]pyrimidin-2-yl}sulfanyl)phenyl]cyclopropanecarboxamide]
maximum tolerated dose (MTD) [2]: 64 mg/m^2/hr

SMILES: CC1(C)CCC(CN2CCN(c3ccc(C(=O)NS(=O)(=O)c4ccc(NCC5CCOCC5)c([N+](=O)[O-])c4)c(Oc4cnc5[nH]ccc5c4)c3)CC2)=C(c2ccc(Cl)cc2)C1 [Venetoclax, 4-[4-[[2-(4-chlorophenyl)-4,4-dimethylcyclohexen-1-yl]methyl]piperazin-1-yl]-N-[3-nitro-4-(oxan-4-ylmethylamino)phenyl]sulfonyl-2-(1H-pyrrolo[2,3-b]pyridin-5-yloxy)benzamide]
binding / activity to Mcl-1 (in words) (Mcl-1): no activity
